Assay results taken from patent US12091385B2, “Pyridinylcyanoguanidine derivative and use thereof” (Rushi Biotech (Hangzhou) Co., Ltd, priority 2021, dated 2024).

Legend:
Format in all cases: cell-based
[1] = tested on: Human gastric cancer cell MKN45; test: CCK-8 cell proliferation assay, MKN45; conditions: MKN-45 cells, 72 hrs with drug, CCK-8, OD 450 nm
Method: (§1) The effect of samples on the proliferation of human tumor cells in vitro was determined by CCK-8 cell proliferation assay.
(§2) The cells were assayed through a method including the following steps: • 1) The cells were digested, counted, and prepared into a cell suspension in a corresponding culture medium (Table 1) (5×10^4 cells/ml for CFPAC-1 and RPMI 8226, and 3.5×10^4 cells/ml for rest cells). The cell suspension was added to each well of a 96-well plate in 100 μl/well. • 2) Then the 96-well plate was incubated for 24 hrs in an incubator at 37° C. and 5% CO2. • 3) The drug was diluted with the culture medium to the required working concentration. 100 μl of the corresponding drug containing medium was added to each well.

[2] = tested on: Human hepatoma cell HepG2; test: CCK-8 cell proliferation assay, HepG2; conditions: HepG2 cells, 72 hrs with drug, CCK-8, OD 450 nm
Method: as §1, §2

[3] = tested on: Human colon cancer cell HCT-116; test: CCK-8 cell proliferation assay, HCT-116; conditions: HCT116 cells, 72 hrs with drug, CCK-8, OD 450 nm
Method: as §1, §2

[4] = tested on: Human lung adenocarcinoma cell A549; test: CCK-8 cell proliferation assay, A549; conditions: A549 cells, 72 hrs with drug, CCK-8, OD 450 nm
Method: as §1, §2

[5] = tested on: Human multiple myeloma cell RPMI 8226; test: CCK-8 cell proliferation assay, RPMI 8226; conditions: RPMI8226 cells, 72 hrs with drug, CCK-8, OD 450 nm
Method: as §1, §2

[6] = tested on: Human esophageal cancer cell TE-1; test: CCK-8 cell proliferation assay, TE-1; conditions: TE-1 cells, 72 hrs with drug, CCK-8, OD 450 nm
Method: as §1, §2

[7] = tested on: Human pancreatic cancer cell CFPAC-1; test: CCK-8 cell proliferation assay, CFPAC-1; conditions: CFPAC-1 cells, 72 hrs with drug, CCK-8, OD 450 nm
Method: as §1, §2

| Structure (SMILES) | IC50 [1] [nM] | IC50 [2] [nM] | IC50 [3] [nM] | IC50 [4] [nM] | IC50 [5] [nM] | IC50 [6] [nM] | IC50 [7] [nM] |
| --- | --- | --- | --- | --- | --- | --- | --- |
| N#CN=C(NCCCCCN1CCN(C(=O)C2Cc3ccccc3O2)CC1)Nc1ccncc1 (centres unmarked) [BSS-PC021, 2-cyano-1-(5-(1-(2-benzotetrahydrofurylfuryl)piperazine-4-yl)pentyl)-3-(4-pyridinyl)guanidine] | 65 | 93 | 106 | 79 | 49 | 118 | 55 |
| N#CN=C(NCCCCCC1CCN(C(=O)c2occc2F)C1)Nc1ccncc1 (centres unmarked) [BSS-PC048, 2-cyano-1-(5-(1-(3-fluoro-2-furylformyl)pyrrolidine-3-yl)pentyl)-3-(4-pyridinyl)guanidine] | 34 | 47 | 60 | 42 | 33 | 51 | 36 |

Continued, values first:

| IC50 [1] [nM] | IC50 [2] [nM] | IC50 [3] [nM] | IC50 [4] [nM] | IC50 [5] [nM] | IC50 [6] [nM] | IC50 [7] [nM] | Structure (SMILES) |
| --- | --- | --- | --- | --- | --- | --- | --- |
| 55 | 79 | 63 | 66 | 42 | 68 | 50 | N#CN=C(NCCCCCC1CCN(C(=O)c2cc3ccccc3o2)C1)Nc1ccncc1 (centres unmarked) [BSS-PC047, 2-cyano-1-(5-(1-(2-benzofurylformyl)pyrrolidine-3-yl)pentyl)-3-(4-pyridinyl)guanidine] |
| 39 | 39 | 73 | 47 | 33 | 42 | 44 | N#CN=C(NCCCCCCC1CCN(C(=O)c2ccc[nH]2)C1)Nc1ccncc1 (centres unmarked) [BSS-PC056, 2-cyano-1-(6-(1-(2-pyrrolylformyl)pyrrolidine-3-yl)hexyl)-3-(4-pyridinyl)guanidine] |
| 41 | 51 | 50 | 53 | 21 | 49 | 37 | N#CN=C(NCCCCCN1CCN(C(=O)c2[nH]ccc2F)CC1)Nc1ccncc1 [BSS-PC024, 2-cyano-1-(5-(1-(3-fluoro-2-pyrrolylformyl)piperazine-4-yl)pentyl)-3-(4-pyridinyl)guanidine] |
